This note sets out measurements from paper PMC1459931, “Assessment of Xenoestrogens Using Three Distinct Estrogen Receptors and the Zebrafish Brain Aromatase Gene in a Highly Responsive Glial Cell System” (Environmental Health Perspectives, 2005).

What all share (assay): luciferase reporter transactivation (zebrafish Aro-B promoter) in transfected U251-MG cells
Assay type in all cases: cell-based
Holding throughout (settings): agonist; 48 hr, 37°C, 2% charcoal/dextran FCS
A general note: In a reporter assay the amount or activity of a reporter protein is the signal.

Assay [1] has as its target T1, zfER-α (zebrafish ER-α) (Danio rerio, UniProt P57717).
T1 construct: gene esr1; coding region of receptor cDNA in Topo-pcDNA3 (Menuet et al. 2002), transiently expressed in human U251-MG glial cells; approx. 65 kDa in vitro translated
T1 sequence (P57717 1-569): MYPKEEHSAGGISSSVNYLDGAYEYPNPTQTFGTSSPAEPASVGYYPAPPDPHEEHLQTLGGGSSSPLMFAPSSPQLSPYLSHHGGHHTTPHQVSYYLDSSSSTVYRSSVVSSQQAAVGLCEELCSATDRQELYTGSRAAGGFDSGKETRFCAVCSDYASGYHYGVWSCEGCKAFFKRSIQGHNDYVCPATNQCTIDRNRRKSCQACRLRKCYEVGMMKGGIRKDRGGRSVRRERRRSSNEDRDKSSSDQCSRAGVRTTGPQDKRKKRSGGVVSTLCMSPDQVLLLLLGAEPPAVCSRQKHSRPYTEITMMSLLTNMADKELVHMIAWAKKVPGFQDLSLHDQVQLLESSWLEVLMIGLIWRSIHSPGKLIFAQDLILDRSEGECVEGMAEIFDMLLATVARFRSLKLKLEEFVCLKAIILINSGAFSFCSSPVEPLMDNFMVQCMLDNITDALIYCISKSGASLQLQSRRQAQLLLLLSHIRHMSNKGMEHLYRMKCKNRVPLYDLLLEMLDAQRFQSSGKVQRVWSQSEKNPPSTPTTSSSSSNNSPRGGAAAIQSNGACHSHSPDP
The source says: luciferase reporter transactivation (zebrafish Aro-B promoter) in transfected U251-MG cells on zfER-α (zebrafish ER-α)

Assay [2] concerns the target T2, zfER-β2 (zebrafish ER-β2) (Danio rerio, UniProt Q7ZU32).
T2 construct: gene esr2a; coding region of receptor cDNA in Topo-pcDNA3 (Menuet et al. 2002), transiently expressed in human U251-MG glial cells; approx. 65 kDa; ER-β2 of Menuet et al. corresponds to esr2a (esr2b is ER-β1)
The text has this:
luciferase reporter transactivation (zebrafish Aro-B promoter) in transfected U251-MG cells on zfER-β2 (zebrafish ER-β2)

Assay [3] addresses T3, zfER-β1 (zebrafish ER-β1) (Danio rerio, UniProt Q5PR29).
T3 construct: gene esr2b; coding region of receptor cDNA in Topo-pcDNA3 (Menuet et al. 2002), transiently expressed in human U251-MG glial cells; approx. 65 kDa; ER-β1 of Menuet et al. corresponds to esr2b (esr2a is ER-β2)
T3 sequence (Q5PR29 1-592): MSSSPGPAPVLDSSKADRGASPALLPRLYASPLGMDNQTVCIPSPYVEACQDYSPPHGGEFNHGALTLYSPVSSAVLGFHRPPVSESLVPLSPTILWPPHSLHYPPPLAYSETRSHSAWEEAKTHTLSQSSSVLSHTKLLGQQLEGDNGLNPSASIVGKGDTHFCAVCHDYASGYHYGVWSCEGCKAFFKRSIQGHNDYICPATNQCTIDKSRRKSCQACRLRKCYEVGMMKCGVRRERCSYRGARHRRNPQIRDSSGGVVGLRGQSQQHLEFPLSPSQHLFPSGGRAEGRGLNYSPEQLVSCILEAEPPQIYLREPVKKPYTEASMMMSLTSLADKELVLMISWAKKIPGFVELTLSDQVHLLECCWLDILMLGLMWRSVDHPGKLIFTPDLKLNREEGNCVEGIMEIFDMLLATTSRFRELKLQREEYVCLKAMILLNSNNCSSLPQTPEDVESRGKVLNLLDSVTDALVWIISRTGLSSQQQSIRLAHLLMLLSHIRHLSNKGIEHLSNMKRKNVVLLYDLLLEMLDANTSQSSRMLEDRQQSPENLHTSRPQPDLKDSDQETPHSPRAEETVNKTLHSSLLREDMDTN
The text has this: luciferase reporter transactivation (zebrafish Aro-B promoter) in transfected U251-MG cells on zfER-β1 (zebrafish ER-β1)

T2 sequence (Q7ZU32 1-553): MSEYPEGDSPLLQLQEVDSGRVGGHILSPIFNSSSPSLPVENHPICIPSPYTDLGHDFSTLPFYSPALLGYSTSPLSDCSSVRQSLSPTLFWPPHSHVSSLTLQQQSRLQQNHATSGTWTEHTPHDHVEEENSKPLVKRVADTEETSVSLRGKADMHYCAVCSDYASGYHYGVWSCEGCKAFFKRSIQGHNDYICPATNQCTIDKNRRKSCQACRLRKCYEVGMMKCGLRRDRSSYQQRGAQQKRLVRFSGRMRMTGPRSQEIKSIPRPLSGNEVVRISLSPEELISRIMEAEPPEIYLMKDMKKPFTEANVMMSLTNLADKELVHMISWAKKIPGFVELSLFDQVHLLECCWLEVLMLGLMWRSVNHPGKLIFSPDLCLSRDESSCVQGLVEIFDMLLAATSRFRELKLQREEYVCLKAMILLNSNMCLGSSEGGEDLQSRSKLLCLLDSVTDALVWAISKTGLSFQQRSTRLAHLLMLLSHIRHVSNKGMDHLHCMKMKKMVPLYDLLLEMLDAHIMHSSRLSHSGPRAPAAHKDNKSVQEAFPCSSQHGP

Broadly, the EC50 is the midpoint of the concentration-response curve. Low readings indicate higher potency in that assay, high ones lower potency in that assay. Turning to `C[C@H]1CCC[C@H](O)CCC/C=C/c2cc(O)cc(O)c2C(=O)O1` [α-Zeralenol], the figures for the 50% effective concentration (EC50) in assay [1], in assay [2] and in assay [3] were 0.59 nM, 0.15 nM and 0.11 nM, respectively.
